In brackets after ≈: the same amount, converted by molar mass. Several values for one entry are separate records, joined by “and”; a condition that tells them apart may be missing. Equal values may be shown once. Each block holds one compound with its values, some of them ahead of it.
What was measured:
Assay in all cases: ≥ marks a high value that may be exact or a test limit, other limits are often not marked, values filed in µg/mL are converted to µM
[1] = tested on: Enterococcus faecalis NCTC 775
[2] = tested on: Pseudomonas aeruginosa NCTC 13437
[3] = tested on: Staphylococcus aureus NCTC 6571
[4] = tested on: Acinetobacter baumannii ATCC 17978
[5] = tested on: Acinetobacter baumannii AYE
[6] = tested on: Pseudomonas aeruginosa PAO1
[7] = tested on: Staphylococcus aureus NCTC 13277
[8] = tested on: Enterococcus faecalis NCTC 12201
[9] = tested on: Staphylococcus aureus NCTC 13616
Klebsiella pneumoniae M6 = tested on: Klebsiella pneumoniae M6
[10] = tested on: Staphylococcus aureus DSM 20231
[11] = tested on: Escherichia coli DSM 30083
[12] = tested on: Staphylococcus aureus ATCC 43300
[13] = tested on: Bacillus subtilis DSM 402
Escherichia coli K-12 = tested on: Escherichia coli K-12
[14] = tested on: Micrococcus luteus NCIMB 13267
[15] = tested on: Staphylococcus aureus ATCC 6538
[16] = tested on: Bacillus subtilis ATCC 6633
[17] = tested on: Pseudomonas aeruginosa ATCC 27853
[18] = tested on: Escherichia coli CGMCC 1.8732
[19] = tested on: Staphylococcus epidermidis CGMCC 1.4260
[20] = tested on: Pseudomonas aeruginosa CGMCC 1.2421
[21] = tested on: Bacillus subtilis CGMCC 1.3376
[22] = tested on: Staphylococcus aureus CGMCC 1.8721
[23] = tested on: Klebsiella pneumoniae CGMCC 1.1736
[24] = tested on: Streptococcus mutans UA159
[25] = tested on: Streptococcus gordonii ATCC 10558
[26] = tested on: Streptococcus sanguinis ATCC 49295
[27] = tested on: Streptococcus mutans GS-5

Structure (SMILES): CC[C@H](C)[C@H](NC(=O)[C@@H]1CCCN1C(=O)[C@H](CC(C)C)NC(=O)[C@@H](N)Cc1ccccc1)C(=O)N[C@H](C(=O)NCC(=O)N[C@@H](CC(C)C)C(=O)N[C@@H](CC(C)C)C(=O)N[C@@H](CCCCN)C(=O)N[C@@H](CO)C(=O)N[C@@H](CC(C)C)C(=O)N[C@@H](CC(C)C)C(=O)N[C@@H](CCCCN)C(N)=O)C(C)C [FLPIVGLLKSLLK]
MIC [1]: 22.2 µM and ≥ 44.4 µM
MIC [2]: ≥ 88.8 µM
MIC [3]: 2.78 µM and 5.55 µM
MIC [4]: 5.55 µM and 11.1 µM
MIC [5]: 5.55 µM (≈ 7.99 µg/mL)
MIC [6]: 88.8 µM (≈ 128 µg/mL)
MIC [7]: 11.1 µM (≈ 16 µg/mL)
MIC [8]: ≥ 88.8 µM
MIC [9]: 11.1 µM (≈ 16 µg/mL)
MIC (Klebsiella pneumoniae M6): 22.2 µM and ≥ 44.4 µM

Structure (SMILES): CC[C@H](C)[C@H](NC(=O)[C@H](CCC(=O)O)NC(=O)[C@H](CCC(N)=O)NC(=O)[C@H](CCC(=O)O)NC(=O)[C@H](CC(C)C)NC(=O)[C@H](C)NC(=O)[C@H](C)NC(=O)[C@@H](NC(=O)[C@H](CCC(=O)O)NC(=O)[C@H](CCC(N)=O)NC(=O)[C@H](CCC(=O)O)NC(=O)[C@H](CC(C)C)NC(=O)[C@H](C)NC(=O)[C@H](C)NC(=O)[C@@H](NC(=O)[C@@H](N)CCC(N)=O)[C@@H](C)CC)[C@@H](C)CC)C(=O)N[C@@H](C)C(=O)N[C@@H](C)C(=O)N[C@@H](CC(C)C)C(=O)N[C@@H](CCC(N)=O)C(=O)O [QIAALEQEIAALEQEIAALQ]
MIC (Escherichia coli K-12): ≥ 250 µM
MIC [14]: ≥ 250 µM
MIC [15]: 250 µM (≈ 538 µg/mL)
MIC [16]: ≥ 250 µM
MIC [17]: 250 µM (≈ 538 µg/mL)

Now from value to compound:

MIC [10]: ≥ 37 µM
MIC [11]: 18 µM (≈ 21.1 µg/mL)
MIC [12]: 12.7 µM (≈ 14.9 µg/mL)
MIC [13]: 2 µM (≈ 2.35 µg/mL)
Structure (SMILES): NCCCC[C@H](N)C(=O)N[C@@H](CCCN=C(N)N)C(=O)N[C@@H](Cc1c[nH]c2ccccc12)C(=O)N[C@@H](CCCN=C(N)N)C(=O)N[C@@H](Cc1c[nH]c2ccccc12)C(=O)N[C@@H](CCCN=C(N)N)C(=O)N[C@@H](Cc1c[nH]c2ccccc12)C(=O)O [KRWRWRW]

MIC [18]: 6.25 µM (≈ 16 µg/mL)
MIC [19]: 3.13 µM (≈ 8.02 µg/mL)
MIC [20]: 6.25 µM (≈ 16 µg/mL)
MIC [21]: 6.25 µM (≈ 16 µg/mL)
MIC [22]: 12.5 µM (≈ 32 µg/mL)
MIC [23]: 6.25 µM (≈ 16 µg/mL)
Structure (SMILES): CC[C@H](C)[C@H](NC(=O)[C@H](CO)NC(=O)CNC(=O)[C@@H](NC(=O)[C@@H](N)CCCN=C(N)N)[C@@H](C)CC)C(=O)N[C@@H](CC(C)C)C(=O)NCC(=O)N[C@@H](CCCN=C(N)N)C(=O)N[C@@H](CC(C)C)C(=O)N[C@@H](C)C(=O)N[C@@H](CCCCN)C(=O)NCC(=O)N[C@@H](CC(C)C)C(=O)N1CCC[C@H]1C(=O)N[C@H](C(=O)N[C@@H](CC(C)C)C(=O)N[C@H](C(=O)N[C@@H](CO)C(=O)N[C@@H](Cc1c[nH]c2ccccc12)C(=O)N[C@H](C(=O)N[C@@H](CCCCN)C(=O)N[C@@H](CC(N)=O)C(=O)N[C@@H](CCCN=C(N)N)C(N)=O)[C@@H](C)CC)[C@@H](C)CC)[C@@H](C)O [RIGSILGRLAKGLPTLISWIKNR]

MIC [24]: 4.27 µM (≈ 10.7 µg/mL)
MIC [25]: 19.9 µM (≈ 49.8 µg/mL)
MIC [26]: ≥ 39.8 µM
MIC [27]: 5.33 µM (≈ 13.3 µg/mL)
Structure (SMILES): CC(C)C[C@H](NC(=O)[C@H](CCCN=C(N)N)NC(=O)[C@H](Cc1ccccc1)NC(=O)[C@H](Cc1ccccc1)NC(=O)[C@@H](NC(=O)[C@H](CO)NC(=O)[C@@H](N)CC(C)C)[C@@H](C)O)C(=O)N[C@@H](Cc1ccccc1)C(=O)N[C@@H](CC(N)=O)C(=O)NCC(=O)N[C@@H](CCCN=C(N)N)C(=O)N[C@@H](CCCN=C(N)N)C(=O)N[C@@H](CCCN=C(N)N)C(=O)N[C@@H](CCCN=C(N)N)C(=O)N[C@@H](CO)C(=O)N[C@H](C(=O)N[C@@H](CCC(N)=O)C(=O)N[C@@H](Cc1c[nH]c2ccccc12)C(=O)N[C@@H](CS)C(=O)N[C@@H](C)C(=O)O)C(C)C [LSTFFRLFNGRRRRSVQWCA]

Reference: DBAASP
